Measured values taken from patent publication US12186332B2, “Methods for overcoming WNT/beta-catenin anti-cancer resistance in leukemia stem cells” (STOWERS INSTITUTE FOR MEDICAL RESEARCH, priority 2019, dated 2025).

Columns and labels:
[1] = tested on: PD-L1, TIM-3 and CD24 on LSCs; assay: FACS of immune checkpoints on LSCs; assay type: in vivo, mouse; settings: 3 days post-treatment
Description: Frequency in BM (top) and frequency of the indicated immune checkpoint within the LSC population (bottom) are shown.

CD8^+ T cells = assay: FACS of peripheral blood CD8+ T cells in leukemic mice; assay type: in vivo, mouse; settings: 48 hrs post-treatment
[2] = molecular target: T1, Akt:β-catenin interaction (EGFP-AKT and mCherry-β-catenin) (Mus musculus, UniProt Q02248); assay: FRET assay (acceptor photobleaching), 293T cells; assay type: cell-based
T1 construct: host or cells: 293T cells
T1 sequence (Q02248 1-781): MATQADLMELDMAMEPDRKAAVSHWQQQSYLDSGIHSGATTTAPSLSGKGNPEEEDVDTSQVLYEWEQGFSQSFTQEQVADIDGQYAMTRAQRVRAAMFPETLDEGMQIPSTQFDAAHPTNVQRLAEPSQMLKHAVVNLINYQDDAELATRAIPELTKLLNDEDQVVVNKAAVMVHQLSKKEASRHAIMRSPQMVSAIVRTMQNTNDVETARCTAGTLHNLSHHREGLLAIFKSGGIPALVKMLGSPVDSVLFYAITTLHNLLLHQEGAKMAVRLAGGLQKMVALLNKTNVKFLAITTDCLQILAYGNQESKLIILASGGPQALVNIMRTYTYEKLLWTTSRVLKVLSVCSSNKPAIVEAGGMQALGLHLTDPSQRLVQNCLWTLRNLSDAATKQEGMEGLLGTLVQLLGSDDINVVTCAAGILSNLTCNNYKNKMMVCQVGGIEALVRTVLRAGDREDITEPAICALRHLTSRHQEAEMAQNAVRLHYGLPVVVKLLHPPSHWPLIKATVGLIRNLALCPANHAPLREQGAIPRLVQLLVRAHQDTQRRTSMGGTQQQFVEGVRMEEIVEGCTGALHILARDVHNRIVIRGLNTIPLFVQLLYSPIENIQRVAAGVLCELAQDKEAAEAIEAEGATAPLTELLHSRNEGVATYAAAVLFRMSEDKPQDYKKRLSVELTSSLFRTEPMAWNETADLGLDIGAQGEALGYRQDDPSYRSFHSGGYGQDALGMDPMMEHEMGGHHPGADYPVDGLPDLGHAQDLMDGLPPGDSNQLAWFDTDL
Description: Cells transfected with EGFP-AKT and mCherry-β-catenin were treated with vehicle or Doxorubicin at the indicated concentrations and FRET efficiency was determined.
FIG. 7C provides the FRET verification between Akt and β-catenin.
FRET measurement was performed by using the acceptor photobleaching method. Briefly, 293T cells were transfected with EGFP-AKT and mCherry-β-catenin (Addgene, #39531, #55001). A Perkin-Elmer Ultraview spinning disc system with a CSU-X1 Yokogawa disc was used for imaging. A 40×1.2 NA Plan-apochromatic objective was used, and emission was collected onto a C9100 Hamamatsu Photonics EM-CCD. EGFP was excited with a 488 nm laser, and emission was collected through a 500-555 nm band pass filter. mCherry was illuminated, and photobleached, with a 561 nm laser. Emission of mCherry was collected with a 580-650 nm band pass filter. 6 images of EGFP were acquired before and 8 images after bleaching of the mCherry with intense 561 nm light. After subtraction of camera background, the average intensity of EGFP in a region of interest spanning the bleached cell was determined in the 4 images before acceptor bleach (I1), or the 4 images after acceptor bleach (12). FRET efficiency is reported as 1−(I1/I2). Calculations were based on >500 cell images.

[3] = tested on: Akt-enhanced β-catenin activity (TOP-Luc); assay: HTS TOPFlash/FOPFlash luciferase reporter dose-response; assay type: cell-based

COc1cccc2c1C(=O)c1c(O)c3c(c(O)c1C2=O)C[C@@](O)(C(=O)CO)C[C@@H]3O[C@H]1C[C@H](N)[C@H](O)[C@H](C)O1 [DXR, doxorubicin]
LSC populations expressing PD-L1 and CD24 ([1]; [Low]DXR): reduced | TIM-3+ LSCs ([1]; [Low]DXR): reduced | LSC populations expressing PD-L1 and CD24 ([1]; clinical-dose DXR): this reduction was reversed | TIM-3+ LSCs ([1]; clinical-dose DXR): increased substantially | CD8+ T cells in peripheral blood (CD8^+ T cells; [Low]DXR): significant increase | CD8+ T cells in peripheral blood (CD8^+ T cells; clinical-dose DXR): significant reduction | concentration at which Akt:β-catenin interaction is inhibited [2]: < 1 µM | FRET between EGFP-AKT and mCherry-β-catenin ([2]; versus vehicle treated cells): decreased with increasing concentrations and exposure time | concentration at which Akt-enhanced β-catenin activity (TOP-Luc) is specifically inhibited (compare to FOP-Luc control) ([3]; HEK-293 TOPFlash vs FOPFlash Akt^Act βcat^Act cells): lower than 1 μM | specificity (FOP-Luc) at higher concentrations ([3]; higher concentrations (above 1 μM)): reduced specificity
